Converted amounts (≈) assume the structure as drawn.
Assays:
[1] = test system: Mycobacterium tuberculosis; assay: Antitubercular activity against Mycobacterium tuberculosis SS1; format: functional
[2] = test system: Mycobacterium tuberculosis; assay: Antitubercular activity against Mycobacterium tuberculosis SS2; format: functional
[3] = test system: Mycobacterium tuberculosis; assay: Antitubercular activity against Mycobacterium tuberculosis SS3; format: functional
[4] = test system: Mycobacterium tuberculosis; assay: Antitubercular activity against Mycobacterium tuberculosis SS4; format: functional
[5] = test system: Mycobacterium tuberculosis; assay: Antitubercular activity against Mycobacterium tuberculosis SS5; format: functional
[6] = test system: Mycobacterium tuberculosis; assay: Antitubercular activity against Mycobacterium tuberculosis SS6; format: functional
[7] = test system: Mycobacterium tuberculosis; assay: Antitubercular activity against Mycobacterium tuberculosis SS7; format: functional
[8] = test system: Mycobacterium tuberculosis; assay: Antitubercular activity against Mycobacterium tuberculosis SS8; format: functional
[9] = test system: Mycobacterium tuberculosis; assay: Antitubercular activity against Mycobacterium tuberculosis SS9; format: functional
[10] = test system: Mycobacterium tuberculosis; assay: Antitubercular activity against Mycobacterium tuberculosis SS10; format: functional
[11] = test system: Mycobacterium tuberculosis; assay: Antitubercular activity against Mycobacterium tuberculosis SS11; format: functional
[12] = test system: Mycobacterium tuberculosis; assay: Antitubercular activity against Mycobacterium tuberculosis H37Rv; format: functional
[13] = test system: Mycobacterium tuberculosis; assay: Effect on mycobacterial growth of Mycobacterium tuberculosis H37Rv infected in human J774A1 cells at 0.5 ug/mL after 7 days; format: functional, J774.A1
[14] = Cytotoxicity against human J774A1; format: cell-based, J774.A1; conditions: J774A1 cells
[15] = Cytotoxicity against human Hep2 cells; format: cell-based, HEp-2
[16] = test system: Mycobacterium tuberculosis; assay: Effect on mycobacterial growth of Mycobacterium tuberculosis H37Rv infected in human J774A1 cells at 0.25 ug/mL after 7 days; format: functional, J774.A1

| SMILES | MIC90 [1] [µg/mL] | MIC90 [2] [µg/mL] | MIC90 [3] [µg/mL] | MIC90 [4] [µg/mL] | MIC90 [5] [µg/mL] | MIC90 [6] [µg/mL] | MIC90 [7] [µg/mL] | MIC90 [8] [µg/mL] | MIC90 [9] [µg/mL] | MIC90 [10] [µg/mL] | MIC90 [11] [µg/mL] | MIC90 [12] [µg/mL] | CFU [13] [µL⁻¹] | CC50 [14] [µg/mL] | CC50 [15] [µg/mL] | CFU [16] [µL⁻¹] |
| --- | --- | --- | --- | --- | --- | --- | --- | --- | --- | --- | --- | --- | --- | --- | --- | --- |
| C=CCn1cc(C(=O)OCC)c(=O)c2ccc3c(nnn3C)c21 | > 32 | > 32 | > 32 | > 32 | > 32 | > 32 | > 32 | > 32 | > 32 | > 32 | > 32 | > 32 | – | – | – | – |
| CCn1cc(C(=O)O)c(=O)c2ccc3c(nnn3C)c21 | 1.6 (≈ 5.88 µM) | 0.8 (≈ 2.94 µM) | 3.2 (≈ 11.8 µM) | 3.2 (≈ 11.8 µM) | 1.6 (≈ 5.88 µM) | 1.6 (≈ 5.88 µM) | 3.2 (≈ 11.8 µM) | 1.6 (≈ 5.88 µM) | 1.6 (≈ 5.88 µM) | 1.6 (≈ 5.88 µM) | 1.6 (≈ 5.88 µM) | 1.6 (≈ 5.88 µM) | – | – | – | – |
| CCCCn1cc(C(=O)O)c(=O)c2ccc3c(nnn3C)c21 | > 32 | > 32 | > 32 | > 32 | > 32 | > 32 | > 32 | > 32 | > 32 | > 32 | > 32 | > 32 | – | – | – | – |
| CCn1cc(C(=O)O)c(=O)c2ccc3c(nnn3CC)c21 | – | – | – | – | – | – | – | – | – | – | – | 1.6 (≈ 5.59 µM) | – | – | – | – |
| Cn1cc(C(=O)O)c(=O)c2ccc3c(nnn3C)c21 | 0.5 (≈ 1.94 µM) | 0.5 (≈ 1.94 µM) | 0.5 (≈ 1.94 µM) | 2 (≈ 7.74 µM) | 0.5 (≈ 1.94 µM) | 0.5 (≈ 1.94 µM) | 0.5 (≈ 1.94 µM) | 0.5 (≈ 1.94 µM) | 0.5 (≈ 1.94 µM) | 0.5 (≈ 1.94 µM) | 0.5 (≈ 1.94 µM) | 0.5 (≈ 1.94 µM) | – | – | – | – |
| Cn1nnc2c3c(ccc21)c(=O)c(C(=O)O)cn3Cc1ccccc1 | > 32 | > 32 | > 32 | > 32 | > 32 | > 32 | > 32 | > 32 | > 32 | > 32 | > 32 | > 32 | – | – | – | – |
| Cn1nnc2c3c(ccc21)c(=O)c(C(=O)O)cn3CCc1ccccc1 | 0.8 (≈ 2.3 µM) | 0.8 (≈ 2.3 µM) | 3.2 (≈ 9.19 µM) | 3.2 (≈ 9.19 µM) | 3.2 (≈ 9.19 µM) | 3.2 (≈ 9.19 µM) | 3.2 (≈ 9.19 µM) | 0.8 (≈ 2.3 µM) | 0.8 (≈ 2.3 µM) | 3.2 (≈ 9.19 µM) | 0.8 (≈ 2.3 µM) | 0.8 (≈ 2.3 µM) | – | – | – | – |
| CCn1cc(C(=O)O)c(=O)c2ccc3nn(C)nc3c21 | – | – | – | – | – | – | – | – | – | – | – | 5 (≈ 18.4 µM) | – | – | – | – |
| CCCCn1cc(C(=O)OCC)c(=O)c2ccc3c(nnn3C)c21 | 0.5 (≈ 1.52 µM) | 0.5 (≈ 1.52 µM) | 0.5 (≈ 1.52 µM) | 0.5 (≈ 1.52 µM) | 0.5 (≈ 1.52 µM) | 0.5 (≈ 1.52 µM) | 0.5 (≈ 1.52 µM) | 0.5 (≈ 1.52 µM) | 0.5 (≈ 1.52 µM) | 0.5 (≈ 1.52 µM) | 0.5 (≈ 1.52 µM) | 0.5 (≈ 1.52 µM) | 5000 | > 50 | > 50 | 8000 |
| CCCn1cc(C(=O)OCC)c(=O)c2ccc3c(nnn3C)c21 | > 32 | > 32 | > 32 | > 32 | > 32 | > 32 | > 32 | > 32 | > 32 | > 32 | > 32 | > 32 | – | – | – | – |
| Cc1ccc(Cn2cc(C(=O)O)c(=O)c3ccc4c(nnn4C)c32)cc1 | > 32 | > 32 | > 32 | > 32 | > 32 | > 32 | > 32 | > 32 | > 32 | > 32 | > 32 | > 32 | – | – | – | – |
| CCOC(=O)c1cn(Cc2ccc(C)cc2)c2c(ccc3c2nnn3C)c1=O | > 32 | > 32 | > 32 | > 32 | > 32 | > 32 | > 32 | > 32 | > 32 | > 32 | > 32 | > 32 | – | – | – | – |
| CCOC(=O)c1cn(Cc2ccccc2)c2c(ccc3c2nnn3C)c1=O | > 32 | > 32 | > 32 | > 32 | > 32 | > 32 | > 32 | > 32 | > 32 | > 32 | > 32 | > 32 | – | – | – | – |
| CO[C@H]1/C=C/O[C@@]2(C)Oc3c(C)c(O)c4c(O)c(c(/C=N/N5CCN(C)CC5)c(O)c4c3C2=O)NC(=O)/C(C)=C\C=C\[C@H](C)[C@H](O)[C@@H](C)[C@@H](O)[C@@H](C)[C@H](OC(C)=O)[C@@H]1C [RIFAMPIN] | > 4 | > 4 | 0.5 (≈ 0.608 µM) | 0.7 (≈ 0.851 µM) | 0.5 (≈ 0.608 µM) | > 4 | 0.8 (≈ 0.972 µM) | 0.5 (≈ 0.608 µM) | 0.5 (≈ 0.608 µM) | 0.8 (≈ 0.972 µM) | 0.5 (≈ 0.608 µM) | 0.7 (≈ 0.851 µM) | – | – | – | – |
| C=CCn1cc(C(=O)O)c(=O)c2ccc3c(nnn3C)c21 | > 32 | > 32 | > 32 | > 32 | > 32 | > 32 | > 32 | > 32 | > 32 | > 32 | > 32 | > 32 | – | – | – | – |
| CCCn1cc(C(=O)O)c(=O)c2ccc3c(nnn3C)c21 | 1.6 (≈ 5.59 µM) | 1.6 (≈ 5.59 µM) | 1.6 (≈ 5.59 µM) | 3.2 (≈ 11.2 µM) | 3.2 (≈ 11.2 µM) | 1.6 (≈ 5.59 µM) | 3.2 (≈ 11.2 µM) | 1.6 (≈ 5.59 µM) | 1.6 (≈ 5.59 µM) | 1.6 (≈ 5.59 µM) | 1.6 (≈ 5.59 µM) | 1.6 (≈ 5.59 µM) | – | – | – | – |
| Cn1nnc2c3[nH]cc(C(=O)O)c(=O)c3ccc21 | – | – | – | – | – | – | – | – | – | – | – | 4.8 (≈ 19.7 µM) | – | – | – | – |
| CCOC(=O)c1cn(C)c2c(ccc3c2nnn3C)c1=O | 0.5 (≈ 1.75 µM) | 0.5 (≈ 1.75 µM) | 0.5 (≈ 1.75 µM) | 2 (≈ 6.99 µM) | 0.5 (≈ 1.75 µM) | 0.5 (≈ 1.75 µM) | 0.5 (≈ 1.75 µM) | 0.5 (≈ 1.75 µM) | 0.5 (≈ 1.75 µM) | 0.5 (≈ 1.75 µM) | 0.5 (≈ 1.75 µM) | 0.5 (≈ 1.75 µM) | – | – | – | – |
| CCOC(=O)c1cn(CCc2ccccc2)c2c(ccc3c2nnn3C)c1=O | > 32 | > 32 | > 32 | > 32 | > 32 | > 32 | > 32 | > 32 | > 32 | > 32 | > 32 | > 32 | – | – | – | – |
| Cn1nnc2c3c(ccc21)c(=O)c(C(=O)O)cn3Cc1ccc(Br)cc1 | > 32 | > 32 | > 32 | > 32 | > 32 | > 32 | > 32 | > 32 | > 32 | > 32 | > 32 | > 32 | – | – | – | – |
| CCOC(=O)c1cn(Cc2ccc(Br)cc2)c2c(ccc3c2nnn3C)c1=O | > 32 | > 32 | > 32 | > 32 | > 32 | > 32 | > 32 | > 32 | > 32 | > 32 | > 32 | > 32 | – | – | – | – |
